The values below come from ChEMBL document CHEMBL1150171, “DNA-damaging agents from Crypteronia paniculata” (J Nat Prod, 2002).

Each structure is given as a SMILES string. Calls of active or inactive are those of the source. The calls are words filed in the database; no cut-off is given here.

Assay [1] concerns Saccharomyces cerevisiae. Nature of the assay: DNA damaging activity against RAD52 transformed Saccharomyces cerevisiae in glucose minimal medium after 41 hrs. Type of assay: functional, organism-based.
Assay [2] deals with Saccharomyces cerevisiae. In words: DNA damaging activity against RAD52 transformed Saccharomyces cerevisiae in galactose minimal medium after 41 hrs. Type of assay: functional, organism-based.
For assay [3], the system named is Saccharomyces cerevisiae. Nature of the assay: DNA damaging activity against YCp50 transformed Saccharomyces cerevisiae in galactose minimal medium after 41 hrs.
The subject of assay [4] is Nucleic Acid. In words: Induction of DNA cleavage assessed as relaxation of supercoiled plasmid DNA at > 1 mM by cell free assay. Type of assay: nucleic-acid assay.
Assay [5] deals with Nucleic Acid. In words: Induction of DNA cleavage assessed as relaxation of supercoiled plasmid DNA at > 1 mM in presence of Cu2+ by cell free assay. In kind it is nucleic-acid assay.

Turning to `COc1c(O)cc2c(=O)oc3c(OC)c(O[C@@H]4OC[C@@H](O)[C@H](O)[C@H]4O)cc4c(=O)oc1c2c34`, the IC50 was 3.1 µM in assay [1], more than 1000 µM in assay [2] and 23.1 µM in assay [3].

`C[C@@H]1O[C@@H](Oc2c(-c3ccc(O)cc3)oc3cc(O)cc(O)c3c2=O)[C@H](O)[C@H](O)[C@H]1O` [AFZELIN]: the IC50 in assay [1] is 7.4 µM; in assay [2], more than 1000 µM; in assay [3], 9.3 µM. For the same compound, the result in assay [4] and in assay [5] was inactive.

`COc1c(O[C@@H]2O[C@H](CO)[C@@H](O)[C@H](O)[C@H]2O)cc2c(=O)oc3c4c(cc5c(=O)oc1c2c35)OCO4` [NYSSOSIDE]: the IC50 in assay [1] turned out to be 1.12 µM; in assay [2], 14.4 µM; in assay [3] it was 0.341 µM.

For orientation: IC50 means the point on the concentration scale where inhibition reaches its midpoint.
